Test results as given in the supplement of paper PMC10307832.

Experiments:
Test in all cases: relative viability (nuclei count vs DMSO), 5 days (fraction); higher = more cells survive
Carboplatin + AZD7762 = compound: C1CC(C1)(C(=O)O)C(=O)O.[NH2-].[NH2-].[Pt+2] [Carboplatin] + NC(=O)Nc1cc(-c2cccc(F)c2)sc1C(=O)N[C@H]1CCCNC1 [AZD7762] (partner 0.2 µM)
Method in brief: (§1)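 Relative viability was taken as the ratio of nuclei in treated wells to nuclei in vehicle wells. Lung cancer cell lines in 1536-well plates received compounds by pin tool one day after seeding, either one drug alone or a fixed anchor-drug dose plus five library-drug doses (not always all listed) in √10 steps. Nuclei were counted on 4× images after 5 days of treatment, and values are medians of duplicate plates.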

Carboplatin + Lapatinib = compound: C1CC(C1)(C(=O)O)C(=O)O.[NH2-].[NH2-].[Pt+2] [Carboplatin] + CS(=O)(=O)CCNCc1ccc(-c2ccc3ncnc(Nc4ccc(OCc5cccc(F)c5)c(Cl)c4)c3c2)o1 [Lapatinib] (partner 2 µM)
Method in brief: as §1

MLN4924 + Pictilisib = compound: NS(=O)(=O)OC[C@@H]1C[C@@H](n2ccc3c(N[C@H]4CCc5ccccc54)ncnc32)C[C@@H]1O [MLN4924] + CS(=O)(=O)N1CCN(Cc2cc3nc(-c4cccc5[nH]ncc45)nc(N4CCOCC4)c3s2)CC1 [Pictilisib] (partner 1 µM)
Method in brief: as §1

Carboplatin + Luminespib = compound: C1CC(C1)(C(=O)O)C(=O)O.[NH2-].[NH2-].[Pt+2] [Carboplatin] + CCNC(=O)c1noc(-c2cc(C(C)C)c(O)cc2O)c1-c1ccc(CN2CCOCC2)cc1 [Luminespib] (partner 0.01 µM)
Method in brief: as §1

| Cell Line | relative viability (Carboplatin + AZD7762; first compound 0.08 µM) | relative viability (Carboplatin + AZD7762; first compound 0.253 µM) | relative viability (Carboplatin + AZD7762; first compound 0.8 µM) | relative viability (Carboplatin + AZD7762; first compound 2.53 µM) | relative viability (Carboplatin + AZD7762; first compound 8 µM) | relative viability (Carboplatin + Lapatinib; first compound 0.08 µM) | relative viability (Carboplatin + Lapatinib; first compound 0.253 µM) | relative viability (Carboplatin + Lapatinib; first compound 0.8 µM) | relative viability (Carboplatin + Lapatinib; first compound 2.53 µM) | relative viability (Carboplatin + Lapatinib; first compound 8 µM) | relative viability (MLN4924 + Pictilisib; first compound 0.04 µM) | relative viability (MLN4924 + Pictilisib; first compound 0.1265 µM) | relative viability (MLN4924 + Pictilisib; first compound 0.4 µM) | relative viability (MLN4924 + Pictilisib; first compound 1.265 µM) | relative viability (MLN4924 + Pictilisib; first compound 4 µM) | relative viability (Carboplatin + Luminespib; first compound 0.08 µM) | relative viability (Carboplatin + Luminespib; first compound 0.253 µM) | relative viability (Carboplatin + Luminespib; first compound 2.53 µM) | relative viability (Carboplatin + Luminespib; first compound 8 µM) | relative viability (Carboplatin + Luminespib; first compound 0.8 µM) |
| --- | --- | --- | --- | --- | --- | --- | --- | --- | --- | --- | --- | --- | --- | --- | --- | --- | --- | --- | --- | --- |
| EKVX | 0.743 | 0.757 | 0.737 | 0.739 | 0.537 | 0.21 | 0.2 | 0.217 | 0.191 | 0.218 | 0.533 | 0.513 | 0.363 | 0.135 | 0.135 | 0.903 | 0.864 | 0.695 | 0.727 | – |
| NCI-H1437 | 1.22 | 1.09 | 0.927 | 0.955 | 1.03 | 0.869 | 0.832 | 0.838 | 0.887 | 0.641 | 0.423 | 0.409 | 0.355 | 0.0891 | 0.081 | 1.14 | 1.14 | 1.03 | 0.97 | 0.994 |
| PC-3 [JPC-3] | 1.04 | 0.732 | 0.836 | 0.706 | 0.553 | 0.451 | 0.458 | 0.465 | 0.468 | 0.446 | 0.904 | 0.817 | 0.334 | 0.251 | 0.313 | 0.807 | 0.749 | 0.716 | 0.703 | 0.616 |
| LK-2 | 0.712 | 0.582 | 0.341 | 0.412 | 0.497 | 1.17 | 0.956 | 0.858 | 0.792 | 0.809 | 0.511 | 0.503 | 0.566 | 0.254 | 0.262 | 0.177 | 0.198 | 0.16 | 0.178 | 0.179 |
| NCI-H1651 | 0.539 | 0.537 | 0.447 | 0.456 | 0.436 | 0.852 | 0.743 | 0.965 | 0.837 | 0.497 | 0.706 | 0.514 | 0.45 | 0.0787 | 0.115 | 0.829 | 0.782 | 0.424 | 0.229 | 0.627 |
| LC-2-ad | 0.922 | 0.829 | 0.854 | 0.851 | 0.78 | 0.967 | 0.981 | 0.938 | 0.991 | 0.844 | 0.122 | 0.427 | 0.39 | 0.143 | 0.116 | 1.02 | 1.01 | 0.911 | 0.651 | 0.993 |
| NCI-H1734 | 0.575 | 0.558 | 0.558 | 0.46 | 0.419 | 1.01 | 1.07 | 1.06 | 1.01 | 0.833 | 0.568 | 0.743 | 0.29 | 0.13 | 0.154 | 0.21 | 0.236 | 0.188 | 0.174 | 0.193 |
| NCI-H460 | 0.612 | 0.53 | 0.524 | 0.279 | 0.111 | 0.977 | 0.87 | 0.957 | 0.779 | 0.336 | 0.506 | 0.729 | 0.618 | 0.191 | 0.0906 | 0.0398 | 0.0303 | 0.0341 | 0.0233 | 0.0396 |
| NCI-H838 | 1.09 | 0.957 | 0.837 | 0.869 | 0.758 | 1.05 | 1.1 | 1.04 | 0.951 | 1.04 | 0.365 | 0.236 | 0.253 | 0.138 | 0.189 | 0.284 | 0.291 | 0.192 | 0.188 | 0.195 |
| NCI-H2347 | 0.837 | 0.741 | 0.805 | 0.752 | 0.798 | 1.02 | 0.926 | 0.918 | 0.949 | 0.888 | 0.841 | 0.895 | 0.387 | 0.324 | 0.369 | 0.573 | 0.421 | 0.432 | 0.352 | 0.368 |
| NCI-H1395 | 0.403 | 0.39 | 0.406 | 0.386 | 0.405 | 1.23 | 1.06 | 0.984 | 0.841 | 0.607 | 0.626 | 0.969 | 0.425 | 0.313 | 0.339 | 0.864 | 0.543 | 0.458 | 0.331 | 0.731 |
| NCI-H647 | 0.604 | 0.474 | 0.444 | 0.476 | 0.303 | 1.29 | 1.1 | 1.02 | 0.98 | 0.862 | 0.318 | 0.469 | 0.274 | 0.0538 | 0.0717 | 0.169 | 0.239 | 0.185 | 0.13 | 0.154 |
